Experimental data: patent US11169156B2, “Long wavelength voltage sensitive dyes” (The Regents of the University of California, priority 2015, dated 2021)
“Also recorded” adds a separate entry of the source.

Assays:
[1] = Spectroscopic studies (absorbance, emission, quantum yield) in vitro; assay type: physicochemical; settings: for quantum yield (Φfl): referenced to cresyl violet; for emission maximum: aqueous buffer
[2] = In vitro cross excitation in aqueous buffer (emission scans with differing excitation wavelengths); assay type: physicochemical; settings: emission 680 nm
Protocol: FIG. 12A-C provides for in vitro cross excitation of BeRST 1 and BR. Emission scans of (A) BeRST 1 and (B) BR in aqueous buffer (50 mM TBS, pH 7.5, 0.1% SDS) with differing excitation wavelengths. (C) Relative fluorescence emission intensity at 680 nm vs. excitation wavelength for BeRST 1 (black bars) and BR (grey bars).
Stock solutions of BR and BeRST 1 were prepared in DMSO (1.0-10 mM) and diluted with TBS (50 mM Tris-HCl, pH 7.5, 0.15 M NaCl) solution containing 0.10% (w/w) SDS (1:100 to 1:1000 dilution). UV-Vis absorbance and fluorescence spectra were recorded using a Shimadzu 2501 Spectrophotometer (Shimadzu) and a Quantamaster Master 4 L-format scanning spectrofluorometer (Photon Technologies International). The fluorometer is equipped with an LPS-220B 75-W xenon lamp and power supply, A-1010B lamp housing with integrated igniter, switchable 814 photon-counting/analog photomultiplier detection unit, and MD5020 motor driver. Samples were measured in 1-cm path length quartz cuvettes (Starna Cells). Relative quantum yields were measured in TBS solution containing 0.10% (w/w) SDS or in CH3OH and referenced to cresyl violet in CH3OH, which has a quantum yield of 0.54.

[3] = tested on: HEK cells; assay: Voltage sensitivity in HEK cells, whole-cell voltage clamp with fluorescence imaging; assay type: cell-based, Human; settings: for voltage sensitivity, fractional change in fluorescence: 680 nm emission, n=4 cells
Protocol: Functional imaging of BeRST 1 was performed using a 20× objective paired with image capture from the EMCCD camera at a sampling rate of 0.5 kHz. BeRST 1 was excited using the 633 nm LED with an intensity of 6.7 W/cm^2. For initial voltage characterization (see, FIG. 4) emission was collection with the QUAD filter and dichroic (see above). For investigation into voltage sensitivity during excitation cross-talk (see, FIG. 11) BeRST 1 was excited by a 633 nm LED as above and 390 nm light (violet LED, 20 nm bandpass) with an intensity of 3.3 W/cm^2 and emission was collected with a 680/10 nm bandpass emission filter.
(§1) Analysis of voltage sensitivity in HEK cells was performed using custom Matlab routines. Briefly, a region of interest (ROI) was selected automatically based on fluorescence intensity and applied as a mask to all image frames. Fluorescence intensity values were calculated at known baseline and voltage step epochs. For analysis of BeRST 1 voltage responses in neurons, regions of interest encompassing cell bodies were drawn in ImageJ and the mean fluorescence intensity for each frame extracted. The photostability of BeRST 1 allowed for the calculation of ΔF/F values by subtracting a mean background value from all raw fluorescence frames, bypassing the noise amplification which arises from subtracting background for each frame. All example traces were not averaged. For comparisons of action potentials recorded electrophysiologically and optically, imaging traces were analyzed using spike detection algorithms in the Clampfit 10 software (Molecular Devices). For cross-excitation quantification images were background subtracted. ROIs were made by thresholding to the 25% of the maximum pixel intensity to remove non-stained areas. Mean intensity values for stained neurons were calculated.
For whole-cell, voltage clamp recordings in HEK 293T cells were held at −60 mV and 100 ms hyper- and de-polarizing steps applied from −100 to +100 mV in 20 mV increments.

[4] = tested on: rat hippocampal neurons; assay: Imaging of action potentials evoked by extracellular field stimulation in hippocampal neurons; assay type: cell-based
Protocol: Hippocampi were dissected from embryonic day 18 Sprague Dawley rats (Charles River Laboratory) in cold sterile HBSS (zero Ca^2+, zero Mg^2+). All dissection products were supplied by Invitrogen, unless otherwise stated. Hippocampal tissue was treated with trypsin (2.5%) for 15 min at 37° C. The tissue was triturated using fire polished Pasteur pipettes, in minimum essential media (MEM) supplemented with 5% fetal bovine serum (FBS; Thermo Scientific), 2% B-27, 2% 1M D-glucose (Fisher Scientific) and 1% glutamax. The dissociated cells were plated onto 12 mm diameter coverslips (Fisher Scientific) pre-treated with PDL (as above) at a density of 30,000-40,000 cells per coverslip in MEM supplemented media (as above). Neurons were maintained at 37° C. in a humidified incubator with 5% CO2. At 3 days in vitro (DIV) half of the MEM supplemented media was removed and replaced with Neurobasal media containing 2% B-27 supplement and 1% glutamax. Transfection of genetic tools was carried out using Lipofectamine 3000 at 7 DIV. Functional imaging was performed on mature neurons 13-20 DIV, except electrophysiological experiments which were performed on 12-15 DIV neurons.
Extracellular field stimulation was delivered by Grass Stimulator connected to a recording chamber containing two platinum electrodes (Warner), with triggering provided through a Digidata 1332A digitizer and pCLAMP 10 software (Molecular Devices). Action potentials were triggered by 1 ms 80 V field potentials delivered at 5 Hz. To prevent recurrent activity the HBS bath solution was supplemented with synaptic blockers 10 μM 2,3-Dioxo-6-nitro-1,2,3, 4-tetrahydrobenzo[f]quinoxaline-7-sulfonamide (NBQX; Santa Cruz Biotechnology) and 25 μM DL-2-Amino-5-phosphonopentanoic acid (APV; Sigma-Aldrich). Functional imaging of BeRST 1 was performed using the EMCCD camera and a 63× objective. BeRST 1 was excited with a 631 nm light (LED; 631 nm, 28 nm bandpass) with an intensity of 127 W/cm^2. Emission from BeRST 1 was collected with a 680/10 nm bandpass emission filter (after passing through a quadruple dichroic mirror (432/38 nm, 509/22 nm, 586/40 nm, 654 nm LP) or for GCaMP6s and ASAP experiments a QUAD filter (quadruple emission filter (430/32 nm, 508/14 nm, 586/30 nm, 708/98 nm) after passing through the quadruple dichroic mirror. Optical sampling rate of BeRST 1 imaging was 0.5-0.53 kHz, except when imaging with ASAP1 (1.25 kHz). Green spectrum genetic tools (GFP, GCaMP6s and ASAP1) were illuminated using 475 nm light (LED; 475 nm, 34 nm bandpass). For functional imaging an intensity of 33 W/cm^2 for GCaMP6s and 200 W/cm^2 for the more weakly fluorescent ASAP1 was used, which is the maximum 475 nm LED intensity for the system. Emission was collected with a 540/50 nm bandpass filter after passing through a 510 nm longpass dichroic. Functional imaging of GCaMP6s and ASAP was performed at 40 Hz and 1.25 kHz, respectively. Images showing cellular morphology were performed by switching to a lower magnification 20× objective in conjunction with either the EMCCD (GCaMP6s/ASAP1) or sCMOS (GFP) camera.
as §1, with “For comparisons of action potentials recorded electrophysiologically and optically, imaging traces were analyzed using spike detection algorithms in the Clampfit 10 software (Molecular Devices). For cross-excitation quantification images were background subtracted. ROIs were made by thresholding to the 25% of the maximum pixel intensity to remove non-stained areas. Mean intensity values for stained neurons were calculated.” left out

[5] = tested on: rat hippocampal neurons; assay: Effect of dye loading on action potential firing, whole-cell patch clamp without imaging; assay type: cell-based; settings: neurons with or without 1 μM dye, n=12 and 11
Protocol: To test if loading of BeRST 1 onto the membrane of neurons has any effect on their action potential firing, ten 500 ms current steps were injected into neurons, in increments of […]. The first action potential from each sweep was analyzed in Clampfit 10 software (Molecular Devices) to give amplitude and kinetic data. The cell capacitance determined by the Clampex software during recording. To evoke single action potentials for electrophysiological and imaging comparisons, short (10 ms) current injections were applied which were 2× the threshold required to evoke a single action potential. Analysis of action potentials was performed using spike detection algorithms in the Clampfit 10 software.

[6] = tested on: rat hippocampal neurons; assay: Action potential imaging in patch-clamped (current clamp) hippocampal neurons; assay type: cell-based; settings: 1.8 kHz optical sampling, n=7 cells
Protocol: Hippocampi were dissected from embryonic day 18 Sprague Dawley rats (Charles River Laboratory) in cold sterile HBSS (zero Ca^2+, zero Mg^2+). All dissection products were supplied by Invitrogen, unless otherwise stated. Hippocampal tissue was treated with trypsin (2.5%) for 15 min at 37° C. The tissue was triturated using fire polished Pasteur pipettes, in minimum essential media (MEM) supplemented with 5% fetal bovine serum (FBS; Thermo Scientific), 2% B-27, 2% 1M D-glucose (Fisher Scientific) and 1% glutamax. […]
as §1, with “All example traces were not averaged. For comparisons of action potentials recorded electrophysiologically and optically, imaging traces were analyzed using spike detection algorithms in the Clampfit 10 software (Molecular Devices).” left out, “ROIs were made by thresholding to the 25% of the maximum pixel intensity to remove non-stained areas.” left out, “calculated. […]” for “calculated.”

[7] = in CH3OH; cited from earlier work
[8] = aqueous buffer (50 mM TBS, pH 7.5, 0.1% SDS)

With CN(C)c1ccc2c(c1)[Si](C)(C)C1=CC(=[N+](C)C)C=CC1=C2c1ccccc1S(=O)(=O)[O-] [BR, 2-(7-(Dimethylamino)-3-(dimethyliminio)-5,5-dimethyl-3,5-dihydrodibenzo[b,e]silin-10-yl) benzenesulfonate] the “quantum yield (Φfl)” value ([1]; TBS/SDS aqueous buffer) was 0.24, the emission maximum [1] was 681 nm and the “absorbance / excitation centered at” value [1, 8] was 658 nm. The extinction coefficient [1, 8] was 150,000 M^−1 cm^−1, the “quantum yield (Φfl)” value ([1]; methanol) was 0.32 and the “change in absorbance with pH (spirocyclization)” value ([1]; pH 2.5 to 9) was “no change in absorbance”. For the same compound, the “absorbance vs. solvent dielectric constant (solvatochromism)” value ([1]; ε=6 (10% water/dioxane v/v) to ε=71 (90% water/dioxane v/v)) was “remains unchanged”, the “emission with 390 nm excitation, share of full emission” value [2] was 16% and the “emission with 475 nm excitation compared to excitation at 630 nm” value [2] was “approximately 1%”.

For COc1cc(N(C)C)ccc1/C=C/c1ccc(/C=C/c2ccc(C3=C4C=CC(=[N+](C)C)C=C4[Si](C)(C)c4cc(N(C)C)ccc43)c(S(=O)(=O)[O-])c2)cc1 [BeRST 1, 5-((E)-4-((E)-4-(Dimethylamino)-2-methoxystyryl)styryl)-2-(7-(dimethylamino)-3-(dimethyliminio)-5,5-dimethyl-3,5-dihydrodibenzo[b,e]silin-10-yl)benzenesulfonate], the voltage sensitivity ([3]; HEK cells loaded with 1 μM dye, whole-cell voltage clamp, n=15 cells) was “approximately 24%±5%”, the “voltage sensitivity, fractional change in fluorescence” value ([3]; excited at 390 nm (3.3 W/cm^2)) was 28 % ΔF/F per 100 mV and the “voltage sensitivity, fractional change in fluorescence” value ([3]; excited at 631 nm (6.7 W/cm^2)) was 26 % ΔF/F per 100 mV. For the same compound, the “linearity of fluorescence response to membrane potential” value ([3]; range spanning ±100 mV) was “linear”, the “quantum yield (Φfl)” value ([1]; TBS/SDS aqueous buffer) was 0.017 and the emission maximum [1] was 683 nm. For the same compound, the “absorbance / excitation centered at” value [1, 8] was 658 nm, the “extinction coefficient at the incident irradiation” value ([1]; at incident irradiation (631 nm BeRST 1, 475 nm VF2.1.Cl)) was 150,000 and the “quantum yield (Φfl)” value ([1]; methanol) was 0.022. For the same compound, the “change in fluorescence per action potential” value ([4]; field stimulation, GFP-expressing cells, n=5 pairs of cells) was 8.7±0.8 % ΔF/F, the “change in fluorescence per action potential” value ([4]; field stimulation, cells not expressing GFP) was “approximately 9.2 % ΔF/F” and the “optical response for action potentials” value ([4]; field stimulation, n=5 cells) was 17.8 % ΔF/F. For the same compound, the “voltage transient for a single evoked action potential” value ([4]; neuron expressing GCaMP6s and stained with BeRST 1) was “approximately 15 % ΔF/F”, the “increase in relative fluorescence to evoked train of action potentials” value ([4]; neurons expressing ASAP1 and stained with BeRST 1, S.E.M., n=4 cells) was 15%±2.1% and the “resolution of individually evoked action potentials in trains” value ([4]; trains at 5, 10 and 20 Hz) was “visible in the BeRST 1 channel at all frequencies”. The “effect on action potential amplitude, duration, rise time, decay time, cellular capacitance” value [5] was “No difference; also recorded: No statistically significant differences”, the “emission with 390 nm excitation, share of full emission” value [2] was 35% and the “emission with 475 nm excitation compared to excitation at 630 nm” value [2] was ~7%. For the same compound, the “FWHM duration of action potentials, optical record” value ([6]; electrophysiological record 1.65±0.15 ms) was 1.97 ± 0.14 ms and the “optical response for action potentials” value ([6]; current clamp evoked action potentials) was “approximately 9.5 % ΔF/F”.

For cresyl violet, the “quantum yield of reference standard” value [7] is given as 0.54.
